Measured values published in patent publication US20260034135A1, “USE OF N6-BENZYLAMINOPURINE AS AN APPETITE SUPPRESSANT” (THE GOVERNING COUNCIL OF THE UNIVERSITY OF TORONTO, priority 2022, published 2026).

Columns and labels:
[1] = Intraperitoneal glucose tolerance test (GTT); assay type: in vivo, CD-1 mice; details: male CD-1, HFD, cohort BSF
Procedure: […] The mice were then briefly fasted to determine the response to insulin or glucose. For the intraperitoneal glucose tolerance test, male mice were transferred to new clean cages and fasted for 6 hours prior to GTT. After 5 hours of fasting, the mice were weighed to determine their proper glucose dosage. The appropriate amount of 20% glucose solution was aliquoted for each mouse (2 g/kg). After 6 hours of fasting, the mice had their blood glucose measured via tail vein using a glucometer. This was recorded as the blood glucose at 0-minute timepoint. The mice were then intraperitoneal injected with their aliquoted glucose solution and returned to their cage. Blood glucose was measured via the tail vein 15, 30, 60, 90, and 120 minutes after glucose injection. Upon completion of GTT, the mice were returned to their cages with food and water and were closely monitored to ensure proper recovery.

[2] = rats fed BAP for 13 weeks, EPA study, no data shown; cited from earlier work
[3] = Peripheral fat mass by Bruker scan; assay type: in vivo, CD-1 mice; details: male CD-1, HFD, BAP emulsion 11 days, Bruker scan before and after
Excerpt: Male and female CD-1 mice were received at age 6-7 weeks and were acclimated on a chow diet for one week prior to experimentation. After acclimation to the facility, mice were switched to a 60% HFD. The male and female mice received HFD for 4 (male) and 5 or 16 (female) weeks prior to BAP exposure. The mice were then acclimated to the emulsion feeding protocol for 4 days prior to the start of BAP exposure using the method described in Kuster et al. (12). Two days prior to the start of the exposure period, a cohort of male mice underwent acute general anesthetic with isoflurane for baseline Bruker scanning to quantify peripheral fat mass. The mice were then weight-matched and randomly assigned to either the control or BAP group. During the exposure period, mice were restrained via scruffing (held at back of neck) and fed 200 μL of an emulsion containing 0.5% carboxymethyl cellulose and 50% honey with or without BAP at 2 hr prior to lights off at the facility daily.
The BAP concentrations were calibrated weekly to achieve a dosage of 300 mg/kg/day. All mice were kept on the 60% HFD throughout the exposure period. […] Hypothalamic collected from the mice were then used to isolate RNA and quantify gene expression using quantitative reverse transcription polymerase chain reaction (qRT-PCR).

p70-S6K = p70-S6K (Thr389) phosphorylation by Western blot in mHypoE-46; assay type: cell-based, mouse; details: 100 μM BAP for 5, 15, 30, 60 and 90 minutes, serum-starved mHypoE-46
Procedure: mHypoE-46 cells were serum starved in 5.5 mM glucose (LG) DMEM for 1 hour prior to treatment with vehicle (0.1% DMSO), 100 µM BAP or H20, […] 5-Aminoimidazole-4-carboxamide ribonucleotide (AICAR) or 0 mM glucose DMEM. Protein was harvested using 1× cell lysis buffer (Cell Signaling Technologies, Inc, CST) containing protease and phosphatase inhibitors. A total of 30 μg protein was separated on a 12% SDS-polyacrylamide gels and transferred onto PVDF membranes. Membranes were blocked in 5% milk dissolved in Tris-buffered saline with Tween 20 (TBS-T) for 1 h and incubated with primary antibody overnight at 4° C. phospho-AMPKα (Thr172; cat. 2532S, CST), and total AMPKα (cat. 2535S, CST); phospho-p70-S6K (Thr389; cat. 9205S, CST) and total p70-S6K (cat. 9202S, CST); insulin receptor ß (cat. 3025S, CST); phospho-AKT (Ser473; cat. 9271S, CST) and total AKT (cat. 9272S, CST); phospho-ERK1/2 (Thr202/Tyr204; cat. 9101, CST) and total ERK (cat. 4695, CST) were diluted 1:1000 in 5% milk in TBS-T. Membranes were washed and incubated with secondary HRP-linked antirabbit antibody (1:7500 in 5% milk in TBS-T, CST) for 1 h, washed, and imaged using the Signal Fire ECL Reagent (CST) on the iBright 1500 Imaging System (Thermofisher). Protein density was quantified using ImageJ or the iBright Imaging System. […]

[4] = BAP in the drinking water in CD-1 mice: body weight and water intake; assay type: in vivo
Procedure: All protocols using mice were approved by the University Animal Care Committee of the University of Toronto and were performed in accordance with the Canadian Council on Animal Care. Animal experiments were performed in three separate animal facilities: Medical Sciences Building (MSB), Centre for Cellular and Biomolecular Research (CCBR) and the Biological Sciences Facility (BSF) due to ongoing construction and housing changes. Facilities and dates are indicated in each experimental cohort. N6-benzylaminopurine (BAP; also called N6-benzyladenine) was obtained from Sigma (B3408, cell culture grade in powder form; CAS number 1214-39-7). Male and female CD-1 mice aged 6-7 weeks were acquired from Charles Rivers and acclimated on a chow diet for one week prior to experimentation. Mice were then weight-matched and placed on either a 60% high fat diet (HFD) or sucrose-matched control diet for 4 weeks (from Research Diets: 60% HFD D12492 and the sucrose-matched control diet […]). After 3 weeks on the diet, mice were acclimated for one week to the drinking apparatus, a 50 mL canonical tube with a drinking tube. After 4 weeks on the diet, the mice were again weight-matched and randomly assigned to either the control or BAP group. […] The average dosages achieved using this method are as follows: male HFD (200 mg/kg/day), male control (157 mg/kg/day), female HFD (189 mg/kg/day), and female control (129.9 mg/kg/day). The mice were exposed continuously to the solutions for a total of 33 days. One week prior to the end of the experiment (day 28), the mice were fasted for 4 hr and underwent intraperitoneal insulin tolerance testing (ITT). After 33 days, the mice were sacrificed, and their tissues were collected. RNA was isolated from the collected hypothalamic and used to quantify gene expression via qRT-PCR.

[5] = daily oral BAP emulsion, 27 days

SMILES: c1ccc(CNc2ncnc3nc[nH]c23)cc1 [BAP, N6-benzylaminopurine]
- glucose uptake in a GTT ([1]; BAP emulsion 14 days): no change in glucose uptake
- fasting blood glucose vs HFD without BAP (GTT) [1, 5]: significantly lower
- glucose response in GTT [1, 5]: improved glucose response
- food intake [2]: reduced
- weight gain [2]: reduced
- net peripheral fat [3]: do not observe any significant changes
- peripheral fat mass percentage [3]: do not observe any significant changes
- p70-S6K (Thr389) phosphorylation (activity) (p70-S6K): significantly downregulated
- initial body weight loss ([4]; female CD-1, 60% HFD, 10 mM BAP in drinking water (189 mg/kg/day), after 9 days of exposure): 9%
- body weight less than control group on same diet at end ([4]; female CD-1, 60% HFD, 10 mM BAP in drinking water, 33 days): 3 g
- initial body weight loss ([4]; female CD-1, sucrose-matched control diet, 10 mM BAP in drinking water (129.9 mg/kg/day), after 3 days, quickly regained): 5%
- body weight as percentage of starting weight vs vehicle control ([4]; female CD-1, sucrose-matched control diet, 10 mM BAP in drinking water, 33 days): not reduced
- peak body weight loss ([4]; male CD-1, 60% HFD, 10 mM BAP in drinking water (200 mg/kg/day), peak after 13 days of exposure): 18%
- body weight difference, control heavier than BAP group at end of experimental period ([4]; male CD-1, 60% HFD, 10 mM BAP in drinking water, 33 days): 11 grams
- peak body weight loss ([4]; male CD-1, sucrose-matched control diet, 10 mM BAP in drinking water (157 mg/kg/day), peak after 12 days): 9%
- body weight lighter than non-BAP control at end of experimental period ([4]; male CD-1, sucrose-matched control diet, 10 mM BAP in drinking water, 33 days): 4 g
